Experimental data reported in US20240109918A1, “HETEROCYCLIC COMPOUNDS AND USES THEREOF” (Kumquat Biosciences Inc., priority 2022, published 2024).

Key:
[1] = biological target: T1, KRASG12D (Homo sapiens, UniProt P01116, G12D); assay: Bio-Biochem-PPI-HTRF Ras-SOS1 interaction assay (KRAS G12D); type: biochemical; details: 5 nM
T1 construct: made in house; host or cells: E. coli BL21 (DE3)
Outline: (§1)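 GST-tagged K-Ras (wt or G12D) with anti-GST-Eu(K) donor was mixed with His-hSOS1 and anti-6His-XL665 acceptor in HEPES pH 7.4/NaCl/DTT/BSA/Igepal buffer, with compound in duplicate from 10 μM down to 0.01 μM. After about 10 min or longer, HTRF 665/620 nm ratio gave IC50.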

[2] = biological target: T2, KRASwt (Homo sapiens, UniProt P01116); assay: Bio-Biochem-PPI-HTRF Ras-SOS1 interaction assay (KRAS wt); type: biochemical; details: 5 nM
T2 construct: made in house; host or cells: E. coli BL21 (DE3)
T2 sequence (P01116 1-188 isoform P01116-2): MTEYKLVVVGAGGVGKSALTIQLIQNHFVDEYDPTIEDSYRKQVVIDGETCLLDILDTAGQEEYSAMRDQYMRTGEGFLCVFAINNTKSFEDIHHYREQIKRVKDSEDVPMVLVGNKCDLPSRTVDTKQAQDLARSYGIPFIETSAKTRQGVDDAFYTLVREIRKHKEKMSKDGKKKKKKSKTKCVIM
Outline: as §1

T1 sequence (P01116 1-188 isoform P01116-2 G12D): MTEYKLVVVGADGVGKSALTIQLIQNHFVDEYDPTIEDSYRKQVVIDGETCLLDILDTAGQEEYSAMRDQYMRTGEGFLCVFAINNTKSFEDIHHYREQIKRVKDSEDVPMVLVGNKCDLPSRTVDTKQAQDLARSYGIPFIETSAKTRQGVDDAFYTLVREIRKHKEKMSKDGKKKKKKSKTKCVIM

| IC50 [1] | IC50 [2] | Compound |
| --- | --- | --- |
| < 5 µM | < 5 µM | N#Cc1c(N)sc2c(F)ccc(-c3c(Cl)cc4c(N5CCCCC6(CN(C(=O)N7CC(C#N)C7)C6)C5)nc(OC[C@@]56CCCN5C[C@H](F)C6)nc4c3F)c12 [compound 274, 1-(6-(7-(2-amino-3-cyano-7-fluorobenzo[b]thiophen-4-yl)-6-chloro-8-fluoro-2-(((2R,7aS)-2-fluorotetrahydro-1H-pyrrolizin-7a(5H)-yl)methoxy)quinazolin-4-yl)-2,6-diazaspiro[3.6]decane-2-carbonyl)azetidine-3-carbonitrile] |
| < 5 µM | < 5 µM | C[C@H](O)C(=O)N1CC2(CCCCN(c3nc(OC[C@@]45CCCN4C[C@H](F)C5)nc4c(F)c(-c5ccc(F)c6sc(N)c(C#N)c56)c(Cl)cc34)C2)C1 [compound 318, 2-amino-4-(6-chloro-8-fluoro-2-(((2R,7aS)-2-fluorotetrahydro-1H-pyrrolizin-7a(5H)-yl)methoxy)-4-(2-((S)-2-hydroxypropanoyl)-2,6-diazaspiro[3.6]decan-6-yl)quinazolin-7-yl)-7-fluorobenzo[b]thiophene-3-carbonitrile] |
| < 5 µM | < 5 µM | CN(C)C/C=C/C(=O)N1CC2(CCCCN(c3nc(OC[C@@]45CCCN4C[C@H](F)C5)nc4c(F)c(-c5ccc(F)c6sc(N)c(C#N)c56)c(Cl)cc34)C2)C1 [compound 188, 2-amino-4-(6-chloro-4-(2-((E)-4-(dimethylamino)but-2-enoyl)-2,6-diazaspiro[3.6]decan-6-yl)-8-fluoro-2-(((2R,7aS)-2-fluorotetrahydro-1H-pyrrolizin-7a(5H)-yl)methoxy)quinazolin-7-yl)-7-fluorobenzo[b]thiophene-3-carbonitrile] |
| < 5 µM | < 5 µM | C[C@H](Oc1nc(N2CCCC3(CN(C(=O)C4CC4(F)F)C3)C2)c2cc(Cl)c(-c3ccc(F)c4sc(N)c(C#N)c34)c(F)c2n1)[C@@H]1CCCN1C (stereo partly drawn) [compound 148, 2-amino-4-(6-chloro-4-(2-(2,2-difluorocyclopropane-1-carbonyl)-2,6-diazaspiro[3.5]nonan-6-yl)-8-fluoro-2-((S)-1-((S)-1-methylpyrrolidin-2-yl)ethoxy)quinazolin-7-yl)-7-fluorobenzo[b]thiophene-3-carbonitrile] |
| < 5 µM | < 5 µM | C#Cc1c(F)ccc2cc(O)cc(-c3ncc4c(N5CCCCC6(CN(C(=O)[C@H]7CC7(F)F)C6)C5)nc(OC[C@@]56CCCN5C[C@H](F)C6)nc4c3F)c12 [compound 215, ((R)-2,2-difluorocyclopropyl) (6-(7-(8-ethynyl-7-fluoro-3-hydroxynaphthalen-1-yl)-8-fluoro-2-(((2R,7aS)-2-fluorotetrahydro-1H-pyrrolizin-7a(5H)-yl)methoxy)pyrido[4,3-d]pyrimidin-4-yl)-2,6-diazaspiro[3.6]decan-2-yl)methanone] |
| < 5 µM | < 5 µM | N#Cc1c(N)sc2c(F)ccc(-c3c(F)c4nc(OC[C@@]56CCCN5C[C@H](F)C6)nc(N5CCCCC6(CN(C(=O)C(F)F)C6)C5)c4c(=O)n3C3CC3)c12 [compound 233, 2-amino-4-(6-cyclopropyl-4-(2-(2,2-difluoroacetyl)-2,6-diazaspiro [3.6]decan-6-yl)-8-fluoro-2-(((2R,7aS)-2-fluorotetrahydro-1H-pyrrolizin-7a(5H)-yl)methoxy)-5-oxo-5,6-dihydropyrido[4,3-d]pyrimidin-7-yl)-7-fluorobenzo[b]thiophene-3-carbonitrile] |
| < 5 µM | < 5 µM | C#Cc1c(F)ccc2cc(O)cc(-c3ccc4c(N5CCCCC6(CN(C(=O)[C@@H]7CC7(F)F)C6)C5)nc(OC[C@@]56CCCN5C[C@H](F)C6)nc4c3F)c12 [compound 260, ((S)-2,2-difluorocyclopropyl) (6-(7-(8-ethynyl-7-fluoro-3-hydroxynaphthalen-1-yl)-8-fluoro-2-(((2R,7aS)-2-fluorotetrahydro-1H-pyrrolizin-7a(5H)-yl)methoxy)quinazolin-4-yl)-2,6-diazaspiro[3.6]decan-2-yl)methanone] |
| < 5 µM | < 5 µM | C#Cc1c(F)ccc2cc(O)cc(-c3ccc4c(N5CCOC6(CNC6)C5)nc(OC[C@@]56CCCN5C[C@H](F)C6)nc4c3F)c12 [compound 158, 5-ethynyl-6-fluoro-4-(8-fluoro-2-(((2R,7aS)-2-fluorotetrahydro-1H-pyrrolizin-7a(5H)-yl)methoxy)-4-(5-oxa-2,8-diazaspiro[3.5]nonan-8-yl)quinazolin-7-yl)naphthalen-2-ol] |
| < 5 µM | < 5 µM | N#Cc1c(N)sc2c(F)ccc(-c3c(Cl)cc4c(N5CCCCC6(CN(C(=O)C78COCC7C8)C6)C5)nc(OC[C@@]56CCCN5C[C@H](F)C6)nc4c3F)c12 (stereo partly drawn) [compound 333, 4-(4-(2-(3-oxabicyclo[3.1.0]hexane-1-carbonyl)-2,6-diazaspiro [3.6]decan-6-yl)-6-chloro-8-fluoro-2-(((2R,7aS)-2-fluorotetrahydro-1H-pyrrolizin-7a(5H)-yl)methoxy)quinazolin-7-yl)-2-amino-7-fluorobenzo[b]thiophene-3-carbonitrile] |
| < 5 µM | < 5 µM | N#Cc1c(N)sc2c(F)ccc(-c3c(Cl)cc4c(N5CCCCC6(CN(C(=O)[C@H]7C[C@H]7F)C6)C5)nc(OC[C@@]56CCCN5C[C@H](F)C6)nc4c3F)c12 [compound 193, 2-amino-4-(6-chloro-8-fluoro-4-(2-((1R,2R)-2-fluorocyclopropane-1-carbonyl)-2,6-diazaspiro[3.6]decan-6-yl)-2-(((2R,7aS)-2-fluorotetrahydro-1H-pyrrolizin-7a(5H)-yl)methoxy)quinazolin-7-yl)-7-fluorobenzo[b]thiophene-3-carbonitrile] |
| < 5 µM | < 5 µM | N#Cc1c(N)sc2c(F)ccc(-c3c(Cl)cc4c(N5CCC(F)(F)CC6(CN(C(=O)[C@@H]7C[C@H]7C#N)C6)C5)nc(OC[C@@]56CCCN5C[C@H](F)C6)nc4c3F)c12 [compound 342, 2-amino-4-(6-chloro-4-(2-((1R,2R)-2-cyanocyclopropane-1-carbonyl)-9,9-difluoro-2,6-diazaspiro[3.6]decan-6-yl)-8-fluoro-2-(((2R,7aS)-2-fluorotetrahydro-1H-pyrrolizin-7a(5H)-yl)methoxy)quinazolin-7-yl)-7-fluorobenzo[b]thiophene-3-carbonitrile] |
| < 5 µM | < 5 µM | CC(C)C(=O)N1CC2(CCCCN(c3nc(OC[C@@]45CCCN4C[C@H](F)C5)nc4c(F)c(-c5ccc(F)c6sc(N)c(C#N)c56)c(Cl)cc34)C2)C1 [compound 197, 2-amino-4-(6-chloro-8-fluoro-2-(((2R,7aS)-2-fluorotetrahydro-1H-pyrrolizin-7a(5H)-yl)methoxy)-4-(2-isobutyryl-2,6-diazaspiro[3.6]decan-6-yl)quinazolin-7-yl)-7-fluorobenzo[b]thiophene-3-carbonitrile] |

| Compound | IC50 [1] | IC50 [2] |
| --- | --- | --- |
| Nc1nc2c(-c3c(Cl)cc4c(N5CCC6(CC5)CN(S(=O)(=O)F)C6)nc(OC[C@@]56CCCN5C[C@H](F)C6)nc4c3F)ccc(F)c2s1 [compound 191, 7-(7-(2-amino-7-fluorobenzo[d]thiazol-4-yl)-6-chloro-8-fluoro-2-(((2R,7aS)-2-fluorotetrahydro-1H-pyrrolizin-7a(5H)-yl)methoxy)quinazolin-4-yl)-2,7-diazaspiro[3.5]nonane-2-sulfonyl fluoride] | ≥ 5 µM | < 5 µM |
